These results are taken from patent US20240368139A1, “NOVEL MODULATORS OF EHMT1 AND EHMT2 AND THERAPEUTIC USE THEREOF” (Tango Therapeutics, Inc., priority 2021, published 2024).

One assay has as its target T1, human EHMT1 982-1266 (Homo sapiens, UniProt Q9H9B1).
T1 sequence (Q9H9B1 982-1266): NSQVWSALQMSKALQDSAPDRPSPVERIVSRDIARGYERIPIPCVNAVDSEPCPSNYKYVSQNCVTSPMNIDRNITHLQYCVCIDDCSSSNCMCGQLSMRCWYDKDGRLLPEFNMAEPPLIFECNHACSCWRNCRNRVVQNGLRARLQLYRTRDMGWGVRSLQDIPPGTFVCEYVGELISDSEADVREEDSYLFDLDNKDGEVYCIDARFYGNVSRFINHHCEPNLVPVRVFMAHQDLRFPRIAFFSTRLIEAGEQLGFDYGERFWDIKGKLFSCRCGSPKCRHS
As to the kind of experiment: EHMT1 enzyme assay on histone peptide substrate (3H-SAM SPA). The following applies: EHMT1 IC50, recombinant human EHMT1 982-1266, histone peptide substrate.

In the next assay the test system is H3K9me2 in HCT116 cells. As to the kind of experiment: HCT116 H3K9me2 in-cell western assay. The format is cell-based. The following applies: Homo sapiens, HCT-116, 72 h, HCT116 cells, 72 hours incubation; read-out: H3K9me2 ICW IC50. The source says: HCT116 cell line was purchased from ATCC (Manassas, VA, USA). […] Penicillin-Streptomycin and heat inactivated fetal bovine serum were purchased from Hyclone (Logan, UT, USA). DPBS, Corning^R were purchased from VWR (Radnor, PA, USA). Triton′ X-100 was purchased from Sigma (St. Louis, MO, USA). Intercept blocking buffer, DRAQ5, Licor Odyssey Infrared Scanner were purchased from Licor Biosciences (Lincoln, NB, USA). Plate washer was purchased from BioTek (Winooski, VT, USA). […] 16% Paraformaldehyde was purchased from Electron Microscopy Sciences (Hatfield, PA, USA). HCT116 cells were maintained in complete growth medium (RPMI supplemented with 10% heat inactivated fetal bovine serum, 1% Penicillin-Streptomycin) and cultured at 37° C. under 5% CO2. N^2-(4-methoxy-3-(3-(pyrrolidin-1-yl)propoxy)phenyl)-N^4,6-dimethyl]pyrimidine-2,4-diamine (synthesis disclosed in International Application WO2017181177A1) was used as a control compound.
HCT116 cells (ATCC) were trypsinized, counted and seeded in assay medium (RPMI supplemented with 10% heat inactivated fetal bovine serum, 1% Penicillin-Streptomycin) at a concentration of 2,000 cells per well to a 384-well cell culture plate with compounds in 50 μl per well. Plates were incubated with at 37° C. under 5% CO2 for 72 hours. After the incubation, 50 μl per well of 8% paraformaldehyde in PBS was added to the plates and incubated at room temperature for 20 minutes. Plates were transferred to a BioTek (EL406) plate washer and washed 5 times with 110 μl per well of wash buffer (1×PBS containing 0.1% Triton X-100). The plates were next blocked with 50 μl of Intercept blocking buffer for 1 hour at room temperature. Blocking buffer was removed and 30 μl per well of monoclonal primary antibody of H3K9me2 (CST) diluted 1:200 in Intercept blocking buffer were added and plates were incubated overnight at 4° C. The plates were then washed 5 times with 110 μl per well of wash buffer (1×PBS containing 0.1% Triton X-100). Next 30 μl per well of secondary was added (1:400 800 CW goat anti-rabbit IgG in blocking buffer) with 1:1000 DRAQ5 in blocking buffer and incubated for 2 hours at room temperature. The plates were washed 5 times with 110 μl per well of wash buffer (1×PBS containing 0.1% Triton X-100) then with 100 μl per well of water once. Plates were allowed to dry at room temperature then imaged on a Licor Odyssey Infrared Scanner which measured integrated intensity at 700 nm and 800 nm wavelength. Both 700 and 800 channels were scanned.
The average of the ratio values (800 nm/700 nm) for each well was calculated and used to determine the percentage for each test well in the plate. Compounds were serially diluted two-fold in 0.1% DMSO for a total of 10 test concentrations beginning at 10 μM. IC50 curves were generated using duplicate wells per concentration of compound. […] IC50 values were calculated using a non-linear regression of Prism.

Another assay deals with T2, human EHMT2 913-1193 (Homo sapiens, UniProt Q96KQ7).
T2 sequence (Q96KQ7 913-1193): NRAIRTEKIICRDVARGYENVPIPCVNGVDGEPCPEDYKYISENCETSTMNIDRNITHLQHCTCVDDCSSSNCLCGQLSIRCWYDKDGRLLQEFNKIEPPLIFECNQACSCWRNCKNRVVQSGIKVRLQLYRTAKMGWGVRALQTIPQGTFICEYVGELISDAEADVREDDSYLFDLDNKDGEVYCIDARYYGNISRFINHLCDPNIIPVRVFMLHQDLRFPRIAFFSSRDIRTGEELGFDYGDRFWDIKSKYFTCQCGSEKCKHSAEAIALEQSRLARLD
As to the kind of experiment: EHMT2 enzyme assay on histone peptide substrate (3H-SAM SPA). The following applies: EHMT2 IC50, recombinant human EHMT2 913-1193, histone peptide substrate.

Consider `CNc1cc(C)nc(Nc2cc(OCCCN3CCCC3)c3occc3c2)n1` [Compound 102, N4,6-dimethyl-N2-[7-(3-pyrrolidin-1-ylpropoxy)benzofuran-5-yl]pyrimidine-2,4-diamine], for which the results for the half-inhibitory concentration (IC50) on human EHMT1 982-1266, with H3K9me2 in HCT116 cells and at human EHMT2 913-1193 were 100 to 500 nM, 500 to 2000 nM and 500 to 2000 nM, respectively.

On to `CNc1cc(C2CCCCC2)nc(Nc2cc3c(c(OCCCN4CCCC4)c2)OCC3)n1` [Compound 104, 6-cyclohexyl-N4-methyl-N2-[7-(3-pyrrolidin-1-ylpropoxy)-2,3-dihydrobenzofuran-5-yl]pyrimidine-2,4-diamine], for which the IC50 at human EHMT1 982-1266, in the assay with H3K9me2 in HCT116 cells and at human EHMT2 913-1193 was above 2000 nM each time.

Consider `CNc1cc(C)nc(Nc2cc3c(c(C4CCCNCC4)c2)OCC3)n1` (stereo not drawn) [Compound 106, N2-[7-(azepan-4-yl)-2,3-dihydrobenzofuran-5-yl]-N4,6-dimethyl-pyrimidine-2,4-diamine], for which the IC50 lay in the range of 500 to 2000 nM on human EHMT1 982-1266, 100 to 500 nM in the assay with H3K9me2 in HCT116 cells and 500 to 2000 nM at human EHMT2 913-1193.

As for `CNc1cc(C)nc(Nc2cc3c(c(C4CCCN(C)CC4)c2)OCC3)n1` (stereo not drawn) [Compound 107, N4,6-dimethyl-N2-[7-(1-methylazepan-4-yl)-2,3-dihydrobenzofuran-5-yl]pyrimidine-2,4-diamine], the IC50 was 100 to 500 nM on human EHMT1 982-1266, 100 to 500 nM in the assay on H3K9me2 in HCT116 cells and 500 to 2000 nM at human EHMT2 913-1193.

Turning to `CNc1nc(Nc2cc3c(c(OCCCN4CCCC4)c2)OCC3)nc(C)c1F` [Compound 108, 5-fluoro-N4,6-dimethyl-N2-[7-(3-pyrrolidin-1-ylpropoxy)-2,3-dihydrobenzofuran-5-yl]pyrimidine-2,4-diamine], the half-maximal inhibitory concentration (IC50) on human EHMT1 982-1266, in the assay on H3K9me2 in HCT116 cells and at human EHMT2 913-1193 was above 2000 nM throughout.

`CNc1nc(Nc2cc(OCCCN3CCCC3)c3occc3c2)nc(C)c1F` [Compound 109, 5-fluoro-N4,6-dimethyl-N2-[7-(3-pyrrolidin-1-ylpropoxy)benzofuran-5-yl]pyrimidine-2,4-diamine]: the IC50 on human EHMT1 982-1266, in the assay on H3K9me2 in HCT116 cells and at human EHMT2 913-1193 was above 2000 nM each time.

With `CNc1cc(C)nc(Nc2cc3c(c(OCCN4CCCC4)c2)OCC3)n1` [Compound 112, N4,6-dimethyl-N2-[7-(2-pyrrolidin-1-ylethoxy)-2,3-dihydrobenzofuran-5-yl]pyrimidine-2,4-diamine], the IC50 was 100 to 500 nM at human EHMT1 982-1266, 500 to 2000 nM with H3K9me2 in HCT116 cells and above 2000 nM at human EHMT2 913-1193.

Turning to `CNc1cc(C)nc(Nc2cc3c(c(OCCCN4CCCC4)c2)OCC(=O)N3)n1` [Compound 114], the IC50 on human EHMT1 982-1266, with H3K9me2 in HCT116 cells and at human EHMT2 913-1193 was above 2000 nM throughout.

As to `Cc1cc(N)nc(Nc2cc3c(c(OCCCN4CCCC4)c2)OCC3)n1` [Compound 115, 6-methyl-N2-[7-(3-pyrrolidin-1-ylpropoxy)-2,3-dihydrobenzofuran-5-yl]pyrimidine-2,4-diamine], the IC50 at human EHMT1 982-1266 is above 2000 nM; with H3K9me2 in HCT116 cells it was 500 to 2000 nM; at human EHMT2 913-1193, above 2000 nM.

On to `Cc1cc(NC2CCCC2)nc(Nc2cc3c(c(OCCCN4CCCC4)c2)OCC3)n1` [Compound 116, N4-cyclopentyl-6-methyl-N2-[7-(3-pyrrolidin-1-ylpropoxy)-2,3-dihydrobenzofuran-5-yl]pyrimidine-2,4-diamine], for which the IC50 was 500 to 2000 nM at human EHMT1 982-1266, above 2000 nM in the assay with H3K9me2 in HCT116 cells and above 2000 nM at human EHMT2 913-1193.

As for `Cc1cc(NC2CCCCC2)nc(Nc2cc3c(c(OCCCN4CCCC4)c2)OCC3)n1` [Compound 117, N4-cyclohexyl-6-methyl-N2-[7-(3-pyrrolidin-1-ylpropoxy)-2,3-dihydrobenzofuran-5-yl]pyrimidine-2,4-diamine], the half-inhibitory concentration (IC50) at human EHMT1 982-1266 is 500 to 2000 nM; with H3K9me2 in HCT116 cells, above 2000 nM; at human EHMT2 913-1193, above 2000 nM.

Take `Cc1cc(NC2CCC2)nc(Nc2cc3c(c(OCCCN4CCCC4)c2)OCC3)n1` [Compound 119, N4-cyclobutyl-6-methyl-N2-[7-(3-pyrrolidin-1-ylpropoxy)-2,3-dihydrobenzofuran-5-yl]pyrimidine-2,4-diamine]: the IC50 is 500 to 2000 nM on human EHMT1 982-1266, 500 to 2000 nM in the assay on H3K9me2 in HCT116 cells and above 2000 nM on human EHMT2 913-1193.

For `CNc1cc(C)nc(Nc2cc(OCCCN3CCCC3)c3oc(=O)[nH]c3c2)n1` [Compound 124, 5-[[4-methyl-6-(methylamino)pyrimidin-2-yl]amino]-7-(3-pyrrolidin-1-ylpropoxy)-3H-1,3-benzoxazol-2-one], the half-inhibitory concentration (IC50) on human EHMT1 982-1266 was 100 to 500 nM; with H3K9me2 in HCT116 cells it was above 2000 nM; on human EHMT2 913-1193, above 2000 nM.

Take `CNc1cc(C)nc(Nc2cc3c(c(N4CCCNCC4)c2)OCC3)n1` [Compound 125, N2-[7-(1,4-diazepan-1-yl)-2,3-dihydrobenzofuran-5-yl]-N4,6-dimethyl-pyrimidine-2,4-diamine]: the IC50 at human EHMT1 982-1266, in the assay on H3K9me2 in HCT116 cells and at human EHMT2 913-1193 was 500 to 2000 nM in each case.

On to `CNc1cc(C)nc(Nc2cc3c(c(N4CCCN(C)CC4)c2)OCC3)n1` [Compound 126, N4,6-dimethyl-N2-[7-(4-methyl-1,4-diazepan-1-yl)-2,3-dihydrobenzofuran-5-yl]pyrimidine-2,4-diamine], for which the IC50 on human EHMT1 982-1266, with H3K9me2 in HCT116 cells and on human EHMT2 913-1193 was 500 to 2000 nM each time.

For the molecule `CNc1cc(C)nc(Nc2cc(OCCCN3CCCC3)c3c(c2)N(Cc2ccccc2)CCO3)n1` [Compound 127, N2-[4-benzyl-8-(3-pyrrolidin-1-ylpropoxy)-2,3-dihydro-1,4-benzoxazin-6-yl]-N4,6-dimethyl-pyrimidine-2,4-diamine], the IC50 fell in the range of 100 to 500 nM at human EHMT1 982-1266, 500 to 2000 nM in the assay with H3K9me2 in HCT116 cells and 500 to 2000 nM at human EHMT2 913-1193.

Regarding `CNc1cc(C)nc(Nc2cc3c(c(N4C[C@H]5CNC[C@H]5C4)c2)OCC3)n1` [Compound 128, N4,6-dimethyl-N2-[7-[rac-(3aS,6aR)-2,3,3a,4,6,6a-hexahydro-1H-pyrrolo[3,4-c]pyrrol-5-yl]-2,3-dihydrobenzofuran-5-yl]pyrimidine-2,4-diamine], the figures for the IC50 on human EHMT1 982-1266, with H3K9me2 in HCT116 cells and on human EHMT2 913-1193 were 500 to 2000 nM, 500 to 2000 nM and above 2000 nM, respectively.

As for `CNc1cc(C)nc(Nc2cc3c(c(OCCCN4CCCC4)c2)OCCN3)n1` [Compound 136], the IC50 at human EHMT1 982-1266 was 100 to 500 nM; in the assay with H3K9me2 in HCT116 cells, 500 to 2000 nM; on human EHMT2 913-1193, above 2000 nM.

For the molecule `CNc1cc(C)nc(Nc2cc3c(c(C4=CCN(C)CCC4)c2)OCO3)n1` [Compound 141, N4,6-dimethyl-N2-[7-(1-methyl-2,3,4,7-tetrahydroazepin-5-yl)-1,3-benzodioxol-5-yl]pyrimidine-2,4-diamine], the values for the IC50 on human EHMT1 982-1266, with H3K9me2 in HCT116 cells and on human EHMT2 913-1193 were below 100 nM, below 100 nM and 100 to 500 nM, respectively.

Take `CNc1cc(C)nc(Nc2cc3c(c(C4=CCN(CCOC)CCC4)c2)OCO3)n1` [Compound 145, N2-[7-[1-(2-methoxyethyl)-2,3,4,7-tetrahydroazepin-5-yl]-1,3-benzodioxol-5-yl]-N4,6-dimethyl-pyrimidine-2,4-diamine]: the figures for the IC50 on human EHMT1 982-1266, with H3K9me2 in HCT116 cells and on human EHMT2 913-1193 were 500 to 2000 nM, 100 to 500 nM and above 2000 nM, respectively.
